System: SKOV-3 cells
Assay: Trypan-blue cell viability after field treatment, SKOV-3
Format: cell-based, human
Conditions: PTX drug +, no field, 24-hour
Source text: After we confirmed that the drug-loaded MENs in the vicinity of the cancer cells indeed acted as a field-controlled valve to let the drug in (due to the effective nano-electroporation effect according to our hypothesis), we studied the viability of the cancer cells for different combinations of the drug and the carrier after the drug penetrated through the cell membrane. (Here, maintaining the remote field at 30 Oe provided the specificity to the cancer cells or, in other words, ensured that the healthy cells were intact.) The confocal images that were obtained after a 24-hour field treatment are in FIG. 13. The three key combinations of the carrier included (i) no particle, (ii) HER-2-GMO-MENs (Note: Here, HER-2 stands for the HER-2 biomarker antibody), and (iii) GMO-MENs, respectively. Accordingly, the three images (from left to right) in FIG. 13A show the morphology of the cancer cells after 24-hour treatment by (i) the free drug (with no particle carrier), (ii) drug-HER-2-GMO-MENs with no field applied, and (iii) drug-GMO-MENs in a 30-Oe d.c. field. The three control images in FIG. 13B show the morphology of the cancer cells after the 24-hour treatment by the same three combinations of the carrier with no drug present. In addition, we conducted the confocal imaging and the trypan-blue cell viability tests on both SKOV-3 and HOMEC cell lines after 24- and 36-hour field treatment. […]

Q: Which “Percentage Cells Alive” value does the source give for CC(=O)O[C@H]1C(=O)[C@@]2(C)[C@H]([C@H](OC(=O)c3ccccc3)[C@]3(O)C[C@H](OC(=O)[C@H](O)[C@@H](NC(=O)c4ccccc4)c4ccccc4)C(C)=C1C3(C)C)[C@]1(OC(C)=O)CO[C@@H]1C[C@@H]2O [FREE, Paclitaxel] here?
A: 86 ± 8.8%

Reference: US9895549B2, “On-demand drug release using magneto-electric nanoparticles” (priority 2012, dated 2018)
